In the assay the target is T1, cathepsin C (CatC; dipeptidyl peptidase 1) (Homo sapiens, UniProt P53634).
T1 construct: gene CTSC
The assay is described as follows: surface plasmon resonance with isolated human CatC (pH […]); enzymatic IC50 […]. The format is binding. (SPR reads the build-up and loss of mass on a sensor chip optically.)

T1 sequence (P53634 25-134): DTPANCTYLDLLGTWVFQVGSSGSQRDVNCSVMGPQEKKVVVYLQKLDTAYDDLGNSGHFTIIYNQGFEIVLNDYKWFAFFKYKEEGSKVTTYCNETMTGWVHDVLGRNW
T1 sequence (P53634 231-394): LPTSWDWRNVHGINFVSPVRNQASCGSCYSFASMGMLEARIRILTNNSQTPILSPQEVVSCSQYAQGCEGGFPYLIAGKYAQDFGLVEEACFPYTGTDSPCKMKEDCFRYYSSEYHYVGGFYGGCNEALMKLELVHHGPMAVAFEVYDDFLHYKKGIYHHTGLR
T1 sequence (P53634 395-463): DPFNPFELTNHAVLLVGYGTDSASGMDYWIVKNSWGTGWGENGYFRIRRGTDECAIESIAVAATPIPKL

Take BI 1291583: binding was put at a Kd of 0.43 nM.

The values above are taken from paper PMC10962448, “The preclinical and phase 1 development of the novel oral cathepsin C inhibitor BI 1291583” (ERJ Open Research, 2024).
